The values that follow come from patent US8815882B2, “Pyrazole aminopyrimidine derivatives as LRRK2 modulators” (Genentech, Inc., priority 2010, dated 2014).

In the first assay the target is T1, LRRK2 (Homo sapiens, UniProt Q5S007, G2019S).
T1 construct: purchased Invitrogen PV4882 (lot 567054A)
T1 sequence (Q5S007 whole entry G2019S): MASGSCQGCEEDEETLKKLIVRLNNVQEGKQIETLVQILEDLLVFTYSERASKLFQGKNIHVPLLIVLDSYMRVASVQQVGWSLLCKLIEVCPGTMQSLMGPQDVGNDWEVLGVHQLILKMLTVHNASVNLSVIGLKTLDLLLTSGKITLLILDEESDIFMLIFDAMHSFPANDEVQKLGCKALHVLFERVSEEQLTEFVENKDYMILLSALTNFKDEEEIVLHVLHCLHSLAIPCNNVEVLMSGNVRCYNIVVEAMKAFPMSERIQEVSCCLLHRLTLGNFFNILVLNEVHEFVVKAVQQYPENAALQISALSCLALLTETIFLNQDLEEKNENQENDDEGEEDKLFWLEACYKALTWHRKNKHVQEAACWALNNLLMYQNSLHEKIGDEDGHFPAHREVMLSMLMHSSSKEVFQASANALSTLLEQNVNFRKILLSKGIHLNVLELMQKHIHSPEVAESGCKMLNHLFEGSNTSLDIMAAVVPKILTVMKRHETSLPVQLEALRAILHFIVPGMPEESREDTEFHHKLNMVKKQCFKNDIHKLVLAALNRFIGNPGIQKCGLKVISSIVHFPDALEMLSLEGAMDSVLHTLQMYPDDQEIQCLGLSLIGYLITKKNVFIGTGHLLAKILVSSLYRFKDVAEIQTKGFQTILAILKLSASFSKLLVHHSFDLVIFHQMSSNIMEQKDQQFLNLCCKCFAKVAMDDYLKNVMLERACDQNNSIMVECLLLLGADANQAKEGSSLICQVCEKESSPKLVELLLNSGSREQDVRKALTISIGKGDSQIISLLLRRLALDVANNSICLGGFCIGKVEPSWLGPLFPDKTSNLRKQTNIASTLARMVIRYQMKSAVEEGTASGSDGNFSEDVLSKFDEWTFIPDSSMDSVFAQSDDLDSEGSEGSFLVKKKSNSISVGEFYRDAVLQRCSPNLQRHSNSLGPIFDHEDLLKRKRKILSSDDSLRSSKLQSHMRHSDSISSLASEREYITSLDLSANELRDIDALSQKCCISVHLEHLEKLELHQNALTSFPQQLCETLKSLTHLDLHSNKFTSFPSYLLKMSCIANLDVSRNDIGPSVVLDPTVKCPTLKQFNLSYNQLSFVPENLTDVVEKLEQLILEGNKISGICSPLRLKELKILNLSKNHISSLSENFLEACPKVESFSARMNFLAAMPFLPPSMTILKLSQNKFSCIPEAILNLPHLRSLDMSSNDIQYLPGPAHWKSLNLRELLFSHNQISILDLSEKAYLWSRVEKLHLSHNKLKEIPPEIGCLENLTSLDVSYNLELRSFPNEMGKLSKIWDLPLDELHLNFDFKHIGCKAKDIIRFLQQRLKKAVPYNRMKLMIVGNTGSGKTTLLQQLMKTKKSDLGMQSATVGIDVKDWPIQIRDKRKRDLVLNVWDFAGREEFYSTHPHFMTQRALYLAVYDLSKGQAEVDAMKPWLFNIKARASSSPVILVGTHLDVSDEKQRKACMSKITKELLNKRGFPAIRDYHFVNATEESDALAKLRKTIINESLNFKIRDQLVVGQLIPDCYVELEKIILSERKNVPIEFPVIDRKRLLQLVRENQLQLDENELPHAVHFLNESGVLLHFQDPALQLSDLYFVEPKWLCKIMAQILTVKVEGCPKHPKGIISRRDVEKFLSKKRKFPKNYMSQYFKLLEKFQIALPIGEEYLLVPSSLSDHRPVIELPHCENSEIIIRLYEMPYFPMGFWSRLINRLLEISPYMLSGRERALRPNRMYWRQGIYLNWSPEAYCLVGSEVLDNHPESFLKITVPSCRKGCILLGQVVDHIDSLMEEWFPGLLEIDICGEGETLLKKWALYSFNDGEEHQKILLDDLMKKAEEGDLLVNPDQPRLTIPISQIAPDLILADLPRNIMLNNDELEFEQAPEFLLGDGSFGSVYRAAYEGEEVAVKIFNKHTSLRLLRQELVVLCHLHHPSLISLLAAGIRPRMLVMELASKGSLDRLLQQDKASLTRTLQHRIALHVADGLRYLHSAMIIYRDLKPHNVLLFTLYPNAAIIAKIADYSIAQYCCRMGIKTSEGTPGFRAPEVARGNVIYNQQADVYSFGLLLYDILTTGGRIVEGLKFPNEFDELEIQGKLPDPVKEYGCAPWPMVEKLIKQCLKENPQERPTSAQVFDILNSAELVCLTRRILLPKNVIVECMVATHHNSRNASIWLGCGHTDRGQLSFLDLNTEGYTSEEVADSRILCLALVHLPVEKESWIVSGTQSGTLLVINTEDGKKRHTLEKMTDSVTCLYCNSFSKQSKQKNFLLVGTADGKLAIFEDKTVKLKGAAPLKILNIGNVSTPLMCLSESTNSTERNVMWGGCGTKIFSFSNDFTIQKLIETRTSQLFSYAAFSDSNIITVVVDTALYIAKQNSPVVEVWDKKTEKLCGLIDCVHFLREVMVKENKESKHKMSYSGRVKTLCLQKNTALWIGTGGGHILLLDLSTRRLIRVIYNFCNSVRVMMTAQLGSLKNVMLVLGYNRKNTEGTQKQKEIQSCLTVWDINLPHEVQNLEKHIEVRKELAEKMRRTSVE
Description: In Vitro LRRK2 Assay (LabChip 3000, fluorescently-labeled peptide substrate, ATP). The assay is classed as biochemical. The settings on record: Table 9; LRRK2 Ki (micromolar); read-out: LRRK2 Ki (KI). The procedure, abridged: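 LRRK2, fluorescent peptide substrate (diluted to 4 μM before mixing), ATP and compound were incubated 2 h in the dark, then stopped. Phosphorylated and unphosphorylated peptide were separated by capillary electrophoresis and quantified by fluorescence. Ki was fitted with a tight-binding equation including enzyme concentration, S and Km; IC50 or percent inhibition were also reported.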
Usually Ki stands for the equilibrium dissociation constant of an inhibitor or competing ligand from its target. With `CCNc1nc(Nc2cnn(C)c2C)ncc1C#N` [Example 385, 2-(1,5-Dimethyl-1H-pyrazol-4-ylamino)-4-ethylamino-pyrimidine-5-carbonitrile], the Ki stood at 12.7 nM.
On the same count and under the same terms, with `CCCn1cc(Nc2ncc(C#N)c(NC)n2)c(C)n1` [Example 387, 4-Methylamino-2-(3-methyl-1-propyl-1H-pyrazol-4-ylamino)-pyrimidine-5-carbonitrile] the figure was 5.4 nM.
Still for that read-out and setting: with `CNc1nc(Nc2cn(C(C)C)nc2C)ncc1C#N` [Example 352, 2-(1-isopropyl-3-methyl-1H-pyrazol-4-ylamino)-4-(methylamino) pyrimidine-5-carbonitrile] the figure was 48 nM.

Staying with this assay, now noted: Table 10; LRRK2 Ki (micromolar); read-out: LRRK2 Ki (KI).
As to `CNC(=O)C(C)(C)n1ncc(Nc2ncc(C(F)(F)F)c(NC3CC3)n2)c1C` [Example 450, 2-[4-(4-Cyclopropylamino-5-trifluoromethyl-pyrimidin-2-ylamino)-5-methyl-pyrazol-1-yl]-N-methyl-isobutyramide], the Ki was 7.1 nM.
Take `CNC(=O)Cn1ncc(Nc2ncc(C(F)(F)F)c(NC)n2)c1C` [Example 398, N-methyl-2-(5-methyl-4-(4-(methylamino)-5-(trifluoromethyl)pyrimidin-2-ylamino)-1H-pyrazol-1-yl)acetamide]: the Ki is 3 nM.
The same measure, in the same setting: with `CCNC(=O)C1(n2ncc(Nc3ncc(C(F)(F)F)c(NC)n3)c2C)CCC1` [Example 442, 1-[5-Methyl-4-(4-methylamino-5-trifluoromethyl-pyrimidin-2-ylamino)-pyrazol-1-yl]-cyclobutane-carboxylic acid ethylamide] the figure was 15.6 nM; with `CNc1nc(Nc2cn(CC(=O)N(C)C)nc2C)ncc1C(F)(F)F` [Example 396, N,N-dimethyl-2-(3-methyl-4-(4-(methylamino)-5-(trifluoromethyl)pyrimidin-2-ylamino)-1H-pyrazol-1-yl)acetamide], 4 nM; with `CCNC(=O)C1(n2cc(Nc3ncc(C(F)(F)F)c(NC)n3)c(C)n2)CCC1` [Example 428], 24 nM.
On the same count and under the same terms, with `CNc1nc(Nc2cn(C(C)(C)C(=O)NCC(F)(F)F)nc2C)ncc1C(F)(F)F` [Example 424] the figure was 6.3 nM.

The same assay, now with this note: read-out: LRRK2 Ki (KI), Table 7.
For `Cc1c(Nc2ncc(C(F)(F)F)c(N3CCCC3)n2)cnn1C` [Example 13, N-(1,5-dimethyl-1H-pyrazol-4-yl)-4-(pyrrolidin-1-yl)-5-(trifluoromethyl) pyrimidin-2-amine], the Ki amounted to 12 nM.
Same read-out and setting: with `CCn1cc(Nc2ncc(Cl)c(OC)n2)c(C)n1` [Example 26, 5-Chloro-N-(1-ethyl-3-methyl-1H-pyrazol-4-yl)-4-methoxy-pyrimidin-2-amine] the figure was 13 nM; with `CNc1nc(Nc2cnn(C)c2OC)ncc1C(F)(F)F` [Example 84, N^2-(5-Methoxy-1-methyl-1H-pyrazol-4-yl)-N^4-methyl-5-trifluoromethyl-pyrimidine-2,4-diamine], 74.2 nM.

Staying with this assay, now noted: read-out: LRRK2 Ki (KI), Table 8.
Regarding `CCNc1nc(Nc2cn(C3CCOCC3)nc2C)ncc1C(F)(F)F` [Example 159, N4-ethyl-N2-(3-methyl-1-(tetrahydro-2H-pyran-4-yl)-1H-pyrazol-4-yl)-5-(trifluoromethyl) pyrimidine-2,4-diamine], the Ki is 3.9 nM.
Same read-out and setting: with `CCNc1nc(Nc2cnn(C3CCN(C(=O)C(C)C)CC3)c2C)ncc1C(F)(F)F` [Example 181, l-(4-(4-(4-(ethylamino)-5-(trifluoromethyl)pyrimidin-2-ylamino)-5-methyl-1H-pyrazol-1-yl)piperidin-1-yl)-2-methylpropan-1-one] the figure was 0.82 nM.
Still for that read-out and setting: with `CCNc1nc(Nc2cnn(C3CCN(C(C)=O)CC3)c2C)ncc1C(F)(F)F` [Example 137, 1-(4-(4-(4-(ethylamino)-5-(trifluoromethyl)pyrimidin-2-ylamino)-5-methyl-1H-pyrazol-1-yl)piperidin-1-yl)ethanone] the figure was 0.4 nM; with `CNc1nc(Nc2cn(C3CC(C)OC(C)C3)nc2C)ncc1C(F)(F)F` (stereo not drawn) [Example 191, N2-(1-(2,6-dimethyltetrahydro-2H-pyran-4-yl)-3-methyl-1H-pyrazol-4-yl)-N4-methyl-5-(trifluoromethyl) pyrimidine-2,4-diamine], 84.6 nM.
Still for that read-out and setting: with `CNc1nc(Nc2cn(CC(C)(C)O)nc2C(F)(F)F)ncc1C(F)(F)F` [Example 198, 2-methyl-1-(4-(4-(methylamino)-5-(trifluoromethyl)pyrimidin-2-ylamino)-3-(trifluoromethyl)-1H-pyrazol-1-yl)propan-2-ol] the figure was 27 nM.
On to `CNc1nc(Nc2cnn(C3CCN(CC(F)(F)F)CC3)c2C)ncc1Br` [Example 93, 5-bromo-N4-methyl-N2-(5-methyl-1-(1-(2,2,2-trifluoroethyl)piperidin-4-yl)-1H-pyrazol-4-yl)pyrimidine-2,4-diamine], for which the Ki is 1.4 nM.
Same read-out and setting: with `CNc1nc(Nc2cn([C@@H](C)COC)nc2C)ncc1C(F)(F)F` [Example 275, N2-[1-((S)-2-Methoxy-1-methyl-ethyl)-3-methyl-1H-pyrazol-4-yl]-N4-methyl-5-trifluoromethyl-pyrimidine-2,4-diamine] the figure was 8.9 nM; with `CNc1nc(Nc2cn(C3CCN(C)CC3F)nc2C)ncc1C(F)(F)F` (stereo not drawn) [Example 222, N2-(1-(3-fluoro-1-methylpiperidin-4-yl)-3-methyl-1H-pyrazol-4-yl)-N4-methyl-5-(trifluoromethyl) pyrimidine-2,4-diamine], 1.6 nM.
The same measure, in the same setting: with `CNc1nc(Nc2cnn(C(F)F)c2C)ncc1Br` [Example 255, 5-Bromo-N2-(1-difluoromethyl-5-methyl-1H-pyrazol-4-yl)-N4-methyl-pyrimidine-2,4-diamine] the figure was 0.7 nM.
Same read-out and setting: with `CNc1nc(Nc2cnn(C3CCCOC3)c2C)ncc1C(F)(F)F` (stereo not drawn) [Example 231, N4-methyl-N2-(5-methyl-1-(tetrahydro-2H-pyran-3-yl)-1H-pyrazol-4-yl)-5-(trifluoromethyl) pyrimidine-2,4-diamine] the figure was 1.8 nM; with `CCNc1nc(Nc2cn(C)nc2C2CCC2)ncc1C(F)(F)F` [Example 281, N2-(3-Cyclobutyl-1-methyl-1H-pyrazol-4-yl)-N4-ethyl-5-trifluoromethyl-pyrimidine-2,4-diamine], 1.3 nM; with `CNc1nc(Nc2cn(-c3ccc(S(=O)(=O)C4CC4)cc3)nc2C)ncc1C(F)(F)F` [Example 161, N2-(1-(4-(cyclopropyl-sulfonyl)phenyl)-3-methyl-1H-pyrazol-4-yl)-N4-methyl-5-(trifluoromethyl) pyrimidine-2,4-diamine], 0.3 nM.
Turning to `Cc1c(Nc2ncc(C(F)(F)F)c(NCC3CCOCC3)n2)cnn1C` [Example 232, N2-(1,5-dimethyl-1H-pyrazol-4-yl)-N4-((tetrahydro-2H-pyran-4-yl)methyl)-5-(trifluoromethyl) pyrimidine-2,4-diamine], the Ki is 9.6 nM.
Still for that read-out and setting: with `CNc1nc(Nc2ccnn2C)ncc1Br` [Example 99, 5-bromo-N4-methyl-N2-(1-methyl-1H-pyrazol-5-yl)pyrimidine-2,4-diamine] the figure was 5.4 nM; with `CCNc1nc(Nc2cn(C(C)(C)c3ccnn3C)nc2C)ncc1C(F)(F)F` [Example 343, N4-ethyl-N2-(3-methyl-1-(2-(1-methyl-1H-pyrazol-5-yl)propan-2-yl)-1H-pyrazol-4-yl)-5-(trifluoromethyl) pyrimidine-2,4-diamine], 0.3 nM.
The same measure, in the same setting: with `CNc1nc(Nc2cn(C3CCCC3O)nc2C)ncc1C(F)(F)F` (stereo not drawn) [Example 335, 2-[3-Methyl-4-(4-methylamino-5-trifluoromethyl-pyrimidin-2-ylamino)-pyrazol-1-yl]-cyclopentanol] the figure was 3.3 nM; with `CNc1nc(Nc2cnn(S(=O)(=O)C(C)C)c2C)ncc1C(F)(F)F` [Example 218, N2-(1-(isopropylsulfonyl)-5-methyl-1H-pyrazol-4-yl)-N4-methyl-5-(trifluoromethyl) pyrimidine-2,4-diamine], 8.1 nM; with `CNc1nc(Nc2cnn(C[C@H](C)OC)c2C)ncc1C(F)(F)F` [Example 187, (S)-N2-(1-(2-methoxypropyl)-5-methyl-1H-pyrazol-4-yl)-N4-methyl-5-(trifluoromethyl) pyrimidine-2,4-diamine], 18.8 nM.
Still for that read-out and setting: with `CNc1nc(Nc2cnn(C3CCOC3)c2C)ncc1C(F)(F)F` (stereo not drawn) [Example 150, N4-methyl-N2-(5-methyl-1-(tetrahydrofuran-3-yl)-1H-pyrazol-4-yl)-5-(trifluoromethyl) pyrimidine-2,4-diamine] the figure was 5.1 nM.
With `CNc1nc(Nc2cnn(-c3ccc(Cl)cc3)c2C)ncc1Br` [Example 122, 5-bromo-N2-(1-(4-chlorophenyl)-5-methyl-1H-pyrazol-4-yl)-N4-methylpyrimidine-2,4-diamine], the Ki was found to be 14 nM.
Regarding `CCCn1ncc(Nc2ncc(Br)c(NC)n2)c1C` [Example 259, 5-Bromo-N4-methyl-N2-(5-methyl-1-propyl-1H-pyrazol-4-yl)-pyrimidine-2,4-diamine], the Ki is 5.7 nM.
Same read-out and setting: with `CNc1nc(Nc2cnn(Cc3ccn(C)n3)c2C)ncc1C(F)(F)F` [Example 324, N4-Methyl-N2-[5-methyl-1-(1-methyl-1H-pyrazol-3-ylmethyl)-1H-pyrazol-4-yl]-5-trifluoromethyl-pyrimidine-2,4-diamine] the figure was 0.6 nM; with `CNc1nc(Nc2cn(C(C)c3ccccn3)nc2C)ncc1C(F)(F)F` (stereo not drawn) [Example 224, N4-methyl-N2-(3-methyl-1-(1-(pyridin-2-yl)ethyl)-1H-pyrazol-4-yl)-5-(trifluoromethyl) pyrimidine-2,4-diamine], 2.4 nM.

Staying with this assay, now noted: read-out: LRRK2 Ki given in the example.
Regarding `CNc1nc(Nc2cnn(C)c2C)ncc1C#N` [Example 349, 2-(1,5-Dimethyl-1H-pyrazol-4-ylamino)-4-(methylamino)pyrimidine-5-carbonitrile], the inhibitory constant (Ki) worked out at 25 nM.
